In ChEMBL document CHEMBL5620419, “Discovery of new Lenalidomide derivatives as potent and selective GSPT1 degraders” (Eur J Med Chem, 2023):
One block for each compound: values may come before it. Activity calls are given as the source filed them. No cut-off for these calls is given here.

Columns and labels:
[1] = biological target: Protein cereblon/Zinc finger protein Aiolos (Homo sapiens) (UniProt Q96SW2+Q9UKT9); assay: PROTAC activity at CRBN/IKZF3 in human U-937 cells at upto 300 nM; type: cell-based
Chain of Protein cereblon/Zinc finger protein Aiolos (Homo sapiens) (Q96SW2 whole entry, looked up): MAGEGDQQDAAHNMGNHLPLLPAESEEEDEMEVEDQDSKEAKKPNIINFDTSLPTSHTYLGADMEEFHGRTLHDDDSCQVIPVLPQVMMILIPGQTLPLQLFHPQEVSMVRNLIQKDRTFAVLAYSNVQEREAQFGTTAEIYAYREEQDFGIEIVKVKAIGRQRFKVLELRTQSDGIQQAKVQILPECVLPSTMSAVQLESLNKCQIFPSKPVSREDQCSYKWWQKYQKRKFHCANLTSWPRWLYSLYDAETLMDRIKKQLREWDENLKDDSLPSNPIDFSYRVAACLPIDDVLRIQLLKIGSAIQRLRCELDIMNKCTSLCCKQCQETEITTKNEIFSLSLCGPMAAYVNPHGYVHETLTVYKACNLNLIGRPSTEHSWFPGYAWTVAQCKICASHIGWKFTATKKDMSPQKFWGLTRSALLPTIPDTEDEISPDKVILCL
Chain of Protein cereblon/Zinc finger protein Aiolos (Homo sapiens) (Q9UKT9 whole entry, looked up): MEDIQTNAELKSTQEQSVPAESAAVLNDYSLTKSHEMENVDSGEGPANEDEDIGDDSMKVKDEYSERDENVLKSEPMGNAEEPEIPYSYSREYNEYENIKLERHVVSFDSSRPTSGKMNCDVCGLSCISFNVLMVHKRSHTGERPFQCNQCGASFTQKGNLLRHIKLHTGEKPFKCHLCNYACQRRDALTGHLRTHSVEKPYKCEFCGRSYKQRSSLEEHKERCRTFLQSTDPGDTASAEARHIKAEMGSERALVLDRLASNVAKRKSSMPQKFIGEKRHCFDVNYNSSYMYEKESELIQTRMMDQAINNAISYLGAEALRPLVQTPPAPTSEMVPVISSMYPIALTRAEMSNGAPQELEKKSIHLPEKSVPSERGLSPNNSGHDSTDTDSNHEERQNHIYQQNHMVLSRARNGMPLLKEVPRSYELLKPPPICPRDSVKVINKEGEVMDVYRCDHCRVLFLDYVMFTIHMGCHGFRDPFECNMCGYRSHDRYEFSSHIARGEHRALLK

U-937 [2] = assay: Induction of apoptosis in human U-937 cells assessed as late apoptotic cells at 100 nM measured after 24 hr by Annexin V-FITC/7AAD staining based flow cytometry (reference value: 1.49%); type: functional
U-937 [3] = assay: Upregulation of caspase-9 level in human U-937 cells measured after 24 hrs by Western blot analysis; type: functional, cell-based; conditions: dose 10-100 nM
[4] = Downregulation of AMPN level in human U-937 cells assessed as fold change at 0.1 uM measured after 6 hrs; type: functional
[5] = biological target: T1, Protein cereblon/Eukaryotic peptide chain release factor GTP-binding subunit ERF3A (Homo sapiens) (UniProt Q96SW2+P15170); assay: PROTAC activity at CRBN/GSPT1 in human U-937 cells assessed as half life measured upto 24 hrs in presence of cycloheximide by Western blot analysis; type: cell-based
T1 sequence (P15170 whole entry, looked up): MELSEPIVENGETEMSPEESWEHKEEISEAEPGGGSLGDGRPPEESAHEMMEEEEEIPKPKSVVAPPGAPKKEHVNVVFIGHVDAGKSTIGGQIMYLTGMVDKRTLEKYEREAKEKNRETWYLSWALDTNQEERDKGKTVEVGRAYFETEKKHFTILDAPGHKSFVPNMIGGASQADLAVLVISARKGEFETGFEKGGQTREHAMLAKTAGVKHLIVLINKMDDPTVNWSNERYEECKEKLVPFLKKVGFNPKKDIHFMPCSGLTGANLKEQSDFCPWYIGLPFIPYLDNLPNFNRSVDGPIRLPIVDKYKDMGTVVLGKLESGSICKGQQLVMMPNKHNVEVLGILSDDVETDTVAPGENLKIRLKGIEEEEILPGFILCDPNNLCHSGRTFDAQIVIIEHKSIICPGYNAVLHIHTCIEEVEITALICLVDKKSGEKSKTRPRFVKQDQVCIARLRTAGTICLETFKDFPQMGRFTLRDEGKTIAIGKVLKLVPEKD
T1 sequence (Q96SW2 whole entry, looked up): as the sequence (Q96SW2 whole entry, looked up) above

U-937 [6] = assay: Induction of apoptosis in human U-937 cells assessed as late apoptotic cells at 30 nM measured after 24 hr by Annexin V-FITC/7AAD staining based flow cytometry (reference value: 1.49%); type: functional
U-937 [7] = assay: Induction of apoptosis in human U-937 cells assessed as late apoptotic cells at 10 nM measured after 24 hr by Annexin V-FITC/7AAD staining based flow cytometry (reference value: 1.49%); type: functional
[8] = Downregulation of SRP72 level in human U-937 cells assessed as fold change at 0.1 uM measured after 6 hrs; type: functional
U-937 [9] = assay: Induction of apoptosis in human U-937 cells assessed as early apoptotic cells at 100 nM measured after 24 hr by Annexin V-FITC/7AAD staining based flow cytometry (reference value: 1.44%); type: functional
U-937 [10] = assay: Induction of apoptosis in human U-937 cells assessed as early apoptotic cells at 30 nM measured after 24 hr by Annexin V-FITC/7AAD staining based flow cytometry (reference value: 1.44%); type: functional
[11] = biological target: Cereblon/Casein kinase I alpha (Homo sapiens) (UniProt P48729+Q96SW2); assay: PROTAC activity at CRBN/CK1alpha in human U-937 cells at upto 300 nM by Western blot analysis; type: cell-based
Chain of Cereblon/Casein kinase I alpha (Homo sapiens) (P48729 2-337 limits assumed): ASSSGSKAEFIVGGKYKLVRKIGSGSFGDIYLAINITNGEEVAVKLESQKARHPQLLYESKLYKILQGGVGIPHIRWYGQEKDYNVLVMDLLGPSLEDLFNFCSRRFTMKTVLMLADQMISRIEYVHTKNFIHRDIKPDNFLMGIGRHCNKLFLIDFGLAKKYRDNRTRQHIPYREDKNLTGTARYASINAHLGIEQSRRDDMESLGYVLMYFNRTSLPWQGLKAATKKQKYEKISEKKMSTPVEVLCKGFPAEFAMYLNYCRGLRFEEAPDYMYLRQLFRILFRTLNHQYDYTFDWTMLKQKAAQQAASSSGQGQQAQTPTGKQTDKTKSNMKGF
Chain of Cereblon/Casein kinase I alpha (Homo sapiens) (Q96SW2 whole entry partner): as the sequence (Q96SW2 whole entry, looked up) above

[12] = Downregulation of K1C10 level in human U-937 cells assessed as fold change at 0.1 uM measured after 6 hrs; type: functional
U-937 [13] = assay: Induction of cell cycle arrest in human U-937 cells assessed as accumulation of cells at G0/G1 phase at 10 nM measured after 24 hrs by propidium iodide staining based flow cytometry analysis (reference value: 61.09%); type: functional
[14] = biological target: T1, Protein cereblon/Eukaryotic peptide chain release factor GTP-binding subunit ERF3A (Homo sapiens); assay: PROTAC activity at CRBN/GSPT1 in human U-937 cells assessed as induction of GSPT1 degradation preincubated with MLN4924 for 2 hrs followed by compound addition and measured after 6 hrs by Western blot analysis; type: cell-based
U-937 [15] = assay: Induction of cell cycle arrest in human U-937 cells assessed as accumulation of cells at G2/M phase at 100 nM measured after 24 hrs by propidium iodide staining based flow cytometry analysis (reference value: 32.33%); type: functional
U-937 [16] = assay: Induction of apoptosis in human U-937 cells assessed as necrotic cells at 10 nM measured after 24 hr by Annexin V-FITC/7AAD staining based flow cytometry (reference value: 3.52%); type: functional
[17] = AUC (0 to t) in ip dosed Sprague-Dawley rat; type: ADME, organism-based; conditions: in vivo
[18] = biological target: Protein cereblon/Eukaryotic peptide chain release factor GTP-binding subunit ERF3A (Homo sapiens, UniProt P15170+Q96SW2); assay: (§1) PROTAC activity at CRBN/GSPT1 in human U-937 cells assessed as degradation of GSPT1 measured after 6 hrs by Western blot analysis; type: cell-based
Chain of Protein cereblon/Eukaryotic peptide chain release factor GTP-binding subunit ERF3A (Q96SW2 whole entry): as the sequence (Q96SW2 whole entry, looked up) above
Chain of Protein cereblon/Eukaryotic peptide chain release factor GTP-binding subunit ERF3A (P15170 whole entry): as the sequence (P15170 whole entry, looked up) above

[19] = biological target: T1, Protein cereblon/Eukaryotic peptide chain release factor GTP-binding subunit ERF3A (Homo sapiens); assay: as §1; type: cell-based; conditions: dose <= 300.0 nM
U-937 [20] = assay: Induction of cell cycle arrest in human U-937 cells assessed as accumulation of cells at G0/G1 phase at 30 nM measured after 24 hrs by propidium iodide staining based flow cytometry analysis (reference value: 61.09%); type: functional
U-937 [21] = assay: Induction of cell cycle arrest in human U-937 cells assessed as accumulation of cells at G2/M phase at 30 nM measured after 24 hrs by propidium iodide staining based flow cytometry analysis (reference value: 32.33%); type: functional
[22] = Cmax in ip dosed Sprague-Dawley rat; type: ADME, organism-based; conditions: in vivo
U-937 [23] = assay: Induction of cell cycle arrest in human U-937 cells assessed as accumulation of cells at G2/M phase at 10 nM measured after 24 hrs by propidium iodide staining based flow cytometry analysis (reference value: 32.33%); type: functional
[24] = biological target: T1, Protein cereblon/Eukaryotic peptide chain release factor GTP-binding subunit ERF3A (Homo sapiens); assay: PROTAC activity at CRBN/GSPT1 in human U-937 cells assessed as increase in ubiquitination of GSPT1 at 100 nM preincubated with MG-132 for 2 hrs followed by compound treatment and measured after 24 hrs by coimmunoprecipitation analysis; type: cell-based
[25] = biological target: T1, Protein cereblon/Eukaryotic peptide chain release factor GTP-binding subunit ERF3A (Homo sapiens); assay: PROTAC activity at CRBN/GSPT1 in human U-937 cells assessed as degradation of GSPT1 at 100 nM measured after 4 to 24 hrs by Western blot analysis; type: cell-based; conditions: time 4-24 hrs
[26] = Downregulation of RNT2 level in human U-937 cells assessed as fold change at 0.1 uM measured after 6 hrs; type: functional
U-937 [27] = assay: Induction of cell cycle arrest in human U-937 cells assessed as accumulation of cells at G0/G1 phase at 100 nM measured after 24 hrs by propidium iodide staining based flow cytometry analysis (reference value: 61.09%); type: functional
U-937 [28] = assay: Induction of cell cycle arrest in human U-937 cells assessed as accumulation of cells at S phase at 10 nM measured after 24 hrs by propidium iodide staining based flow cytometry analysis (reference value: 6.38%); type: functional
[29] = Downregulation of SCAM2 level in human U-937 cells assessed as fold change at 0.1 uM measured after 6 hrs; type: functional
[30] = Downregulation of GSPT1 level in human U-937 cells assessed as fold change at 0.1 uM measured after 6 hrs; type: functional
U-937 [31] = assay: Downregulation of cyclin B1 level in human U-937 cells measured after 24 hrs by Western blot analysis; type: functional, cell-based; conditions: dose 10-100 nM
[32] = Downregulation of SYIC level in human U-937 cells assessed as fold change at 0.1 uM measured after 6 hrs; type: functional
U-937 [33] = assay: Downregulation of CDK6 level in human U-937 cells measured after 24 hrs by Western blot analysis; type: functional, cell-based; conditions: dose 10-100 nM
[34] = biological target: Cereblon/Ikaros (Homo sapiens) (UniProt Q96SW2+Q13422); assay: PROTAC activity at CRBN/IKZF1 in human U-937 cells at upto 300 nM by Western blot analysis; type: cell-based
MOLT-4 = assay: Antiproliferative activity against human MOLT-4 cells measured after 72 hrs by CCK-8 method; type: functional, cell-based; conditions: MOLT-4, 72 h
MV4-11 = assay: Antiproliferative activity against human MV4-11 cells measured after 72 hrs by CCK-8 method; type: functional, cell-based; conditions: MV4-11, 72 h
U-937 [35] = assay: Induction of apoptosis in human U-937 cells assessed as necrotic cells at 30 nM measured after 24 hr by Annexin V-FITC/7AAD staining based flow cytometry (reference value: 3.52%); type: functional
U-937 [36] = assay: Induction of cell cycle arrest in human U-937 cells assessed as accumulation of cells at S phase at 30 nM measured after 24 hrs by propidium iodide staining based flow cytometry analysis (reference value: 6.38%); type: functional
U-937 [37] = assay: Induction of apoptosis in human U-937 cells assessed as viable cells at 10 nM measured after 24 hr by Annexin V-FITC/7AAD staining based flow cytometry (reference value: 93.55%); type: functional; conditions: read-out: Activity
[38] = Downregulation of TIM9 level in human U-937 cells assessed as fold change at 0.1 uM measured after 6 hrs; type: functional
U-937 [39] = assay: Upregulation of cleaved caspase-3 level in human U-937 cells measured after 24 hrs by Western blot analysis; type: functional, cell-based; conditions: dose 10-100 nM
U-937 [40] = assay: Induction of apoptosis in human U-937 cells assessed as viable cells at 30 nM measured after 24 hr by Annexin V-FITC/7AAD staining based flow cytometry (reference value: 93.55%); type: functional; conditions: read-out: Activity
[41] = biological target: T1, Protein cereblon/Eukaryotic peptide chain release factor GTP-binding subunit ERF3A (Homo sapiens); assay: PROTAC activity at CRBN/GSPT1 in human MV4-11 cells assessed as degradation of GSPT1 at upto 300 nM by Western blot analysis; type: cell-based
U-937 [42] = assay: Induction of apoptosis in human U-937 cells assessed as necrotic cells at 100 nM measured after 24 hr by Annexin V-FITC/7AAD staining based flow cytometry (reference value: 3.52%); type: functional
[43] = Downregulation of SEC13 level in human U-937 cells assessed as fold change at 0.1 uM measured after 6 hrs; type: functional
[44] = biological target: T1, Protein cereblon/Eukaryotic peptide chain release factor GTP-binding subunit ERF3A (Homo sapiens); assay: PROTAC activity at CRBN/GSPT1 in human MOLT-4 cells assessed as degradation of GSPT1 at upto 300 nM by Western blot analysis; type: cell-based
U-937 [45] = assay: Antiproliferative activity against human U-937 cells measured after 72 hrs by CCK-8 method; type: functional, cell-based; conditions: U-937, 72 h
[46] = Downregulation of AIMP2 level in human U-937 cells assessed as fold change at 0.1 uM measured after 6 hrs; type: functional
[47] = Half life in ip dosed Sprague-Dawley rat; type: ADME, organism-based; conditions: in vivo
[48] = biological target: T1, Protein cereblon/Eukaryotic peptide chain release factor GTP-binding subunit ERF3A (Homo sapiens); assay: PROTAC activity at CRBN/GSPT1 in human U-937 cells assessed as degradation of GSPT1 at 300 nM measured after 6 hrs by Western blot analysis relative to control; type: cell-based
U-937 [49] = assay: Induction of apoptosis in human U-937 cells assessed as viable cells at 100 nM measured after 24 hr by Annexin V-FITC/7AAD staining based flow cytometry (reference value: 93.55%); type: functional; conditions: read-out: Activity
U-937 [50] = assay: Induction of cell cycle arrest in human U-937 cells assessed as accumulation of cells at S phase at 100 nM measured after 24 hrs by propidium iodide staining based flow cytometry analysis (reference value: 6.38%); type: functional
[51] = biological target: T1, Protein cereblon/Eukaryotic peptide chain release factor GTP-binding subunit ERF3A (Homo sapiens); assay: PROTAC activity at CRBN/GSPT1 in human U-937 cells assessed as induction of GSPT1 degradation preincubated with MG132 for 2 hrs followed by compound addition and measured after 6 hrs by Western blot analysis; type: cell-based
[52] = AUC (0 to t) in oral dosed Sprague-Dawley rat; type: ADME, organism-based; conditions: in vivo
U-937 [53] = assay: Induction of apoptosis in human U-937 cells assessed as early apoptotic cells at 10 nM measured after 24 hr by Annexin V-FITC/7AAD staining based flow cytometry (reference value: 1.44%); type: functional
[54] = Cmax in oral dosed Sprague-Dawley rat; type: ADME, organism-based; conditions: in vivo
[55] = Downregulation of K2C1 level in human U-937 cells assessed as fold change at 0.1 uM measured after 6 hrs; type: functional

Activity [1]: inactive
T1/2 [5]: 6.3 h
Activity [11]: inactive
Activity [14]: inactive
AUC(0-t) [17]: 8160 ng·h/mL
EC50 [18]: 35 nM
Activity [19]: Dose-Dependent Effect
Cmax [22]: 4270 ng/mL
Activity [24]: Active
Activity [25]: Active
Activity [34]: inactive
IC50 (MOLT-4): 6 nM
IC50 (MV4-11): 27 nM
Activity [41]: Active
Activity [44]: Active
IC50 (U-937 [45]): 19 nM
half-life [47]: 1.25 h
Emax [48]: 81.7%
Activity [51]: inactive
AUC(0-t) [52]: 1050 ng·h/mL
Cmax [54]: 671 ng/mL
Structure (SMILES): COCCN(C)Cc1cc(NC(=O)CCc2ccc3c(c2)C(=O)N(C2CCC(=O)NC2=O)C3)cc(Cl)c1C (stereo not drawn)
Activity (U-937 [2]): 27.48%
Activity (U-937 [3]): Dose-Dependent Effect
log(activity) [4]: -3.63
Activity (U-937 [6]): 14.45%
Activity (U-937 [7]): 2.34%
log(activity) [8]: -3.32
Activity (U-937 [9]): 23.01%
Activity (U-937 [10]): 14.2%
log(activity) [12]: -9.04
Activity (U-937 [13]): 50.22%
Activity (U-937 [15]): 20.68%
Activity (U-937 [16]): 2.73%
Activity (U-937 [20]): 63.89%
Activity (U-937 [21]): 26.07%
Activity (U-937 [23]): 31.72%
log(activity) [26]: -3.36
Activity (U-937 [27]): 71.09%
Activity (U-937 [28]): 8.87%
log(activity) [29]: -3.32
log(activity) [30]: -3.32
Activity (U-937 [31]): Dose-Dependent Effect
log(activity) [32]: -3.32
Activity (U-937 [33]): Dose-Dependent Effect
Activity (U-937 [35]): 5.84%
Activity (U-937 [36]): 9.99%
viability at 0.01 µM (U-937 [37]): 93.2%
log(activity) [38]: -3.32
Activity (U-937 [39]): Dose-Dependent Effect
viability at 0.03 µM (U-937 [40]): 65.5%
Activity (U-937 [42]): 5.5%
log(activity) [43]: -3.32
log(activity) [46]: -3.32
viability at 0.1 µM (U-937 [49]): 44.9%
Activity (U-937 [50]): 6.73%
Activity (U-937 [53]): 1.9%
log(activity) [55]: -5.03

EC50 [18]: 48 nM
Structure (SMILES): Cc1c(Cl)cc(NC(=O)CCc2ccc3c(c2)C(=O)N(C2CCC(=O)NC2=O)C3)cc1CN1CCOCC1 (stereo not drawn)
